Here are results for one substance from patent EP2204099A1, “Methods for producing pure amino acid chelate complexes, and uses thereof” (Viva Pharmaceuticals Inc., priority 2008, dated 2010).

In experiment [1] the test system is CTX-induced immunodeficient mice. Put plainly: Clearance of charcoal particles (carbon clearance test) in CTX-induced immunodeficient mice. The note with it: 17 mg/kg per os; CTX 50 mg/kg i.p.; x±sd, n=10. The experiment is classed as in vivo. On the procedure: A total of 70 mice were divided into 7 treatment groups: Vehicle; CTX (cyclophosphamide) + Vehicle; CTX+ZnSO4 (17mg mg/kg); CTX+Zinc chelate (Zn:2Asp:2Lys) (57 mg/kg); CTX+Zinc chelate (Zn:2Asp:2Lys) (114 mg/kg); CTX+Zinc chelate (Zn:2Asp:2Lys) (228 mg/kg); and CTX+Zinc chelate (Zn:2Asp:2Lys) (456 mg/kg). The mice were administrated per os at least 16 days before experimentation. CTX was given as an intraperitoneal injection at the dose of 50 mg/kg every day for 4 days after 9 days of drug administration.
Sixty minutes after the last drug administration, mice were injected with 1:3 diluted Indian ink 10 ml/kg. At 1 min (T1) and 11 min (T2), bold 40µl was taken from retroocular venous plexus and resolved in 0.1 % Na2CO3 solution 4 ml. The absorbance (OD) was measured at 600 nm by a 721 spectrophotometer. The clearance rate K and clearance index a were calculated: K = (lgOD1-lgOD2)/T2 -T1 [formula] α = K^(1/3) × W/(liver weight+spleen weight) [formula] (W: weight of mouse)

For experiment [2] the test system is unchanged. Put plainly: Serum hemolysin test in CTX-induced immunodeficient mice. The note with it: 17 mg/kg per os; SRBC-immunized; CTX 50 mg/kg i.p.; x±sd, n=10. The experiment is classed as in vivo. On the procedure: A total of 70 mice were divided into […] treatment groups: Vehicle; CTX (cyclophosphamide) + Vehicle; CTX+Zinc Sulphate (17mg mg/kg); CTX+Zinc chelate (Zn:[…]:[…]) (57 mg/kg); CTX+Zinc chelate (Zn:[…]:[…]) (114 mg/kg); CTX+Zinc chelate (Zn:[…]:[…]) (228 mg/kg); CTX+Zinc chelate (Zn:[…]:[…]) (456 mg/kg). The mice were administrated per os at least 16 days before experimentation. After 8 days of drug or vehicle administration, all mice were immunized with an intraperitioneal injection of 0.2 ml of 20% SRBC (sheep red blood cell) in saline. CTX was given intraperitoneal injection at the dose of 50 mg/kg every day for 4 days after 9 days of drug administration. Sixty minutes after the last drug administration, blood was collected by retroorbital venous plexus puncture, and then centrifuged (2000 r/min 5 min). Sheep red cell suspension 0.5 ml (5% sheep red cell in saline) was added to 1 ml diluted sera (1:500 dilution with saline), followed by 1 ml diluted guinea pig plasma (10% plasma in saline) in sequence. For negative controls, the durg waqs substituted with saline. The samples and controls were incubated for 10 min at 37°C, and then immersed in an ice-water bath (0°C) to stop the reaction. […] The absorbance for each tube was recorded and the 50% hemolytic dose (HC50) was calculated as follows: Sample HC50 = sample absorbance 50% hemolytic absorbance x dilution factors.

With Zinc Sulphate, the “α (clearance index)” value in experiment [1] is 4.2988±1.4347. Besides, the “HC50 (serum hemolysin)” value in experiment [2] was determined as 141.7±29.5.
